Twelve compounds from patent publication US9788542B2, “Safened herbicidal compositions including 4-amino-3-chloro-5-fluoro-6-(4-chloro-2-fluoro-3-methoxyphenyl)pyridine-2-carbox) acid or a derivative thereof for use in corn (maize)” (Dow AgroSciences LLC, priority 2013, dated 2017) can be followed below.

Molecules are shown by their SMILES. Values joined by “and” are separate entries in the source; they are usually repeats but may differ in a detail not shown here. Identical values can stand only once. Like-named read-outs stand apart in the source and are kept apart here.

Format in all cases: in vivo
The subject of data set [1] is ABUTH = Abutilon theophrasti Medik. The experiment in a line: Postemergence herbicidal activity, greenhouse, visual injury. Particulars: for pest or weed control at 5 g/ha / pest or weed control at 40 g/ha: Abutilon theophrasti, post-emergence, 480 h, read-out: ABUTH Obs (observed visual injury). As to the method:
(§1) When required to ensure good germination and healthy plants, a fungicide treatment and/or other chemical or physical treatment was applied. The plants were grown for 7-36 days in a greenhouse with an approximate 14 hour photoperiod which was maintained at about 18° C. during the day and 17° C. during the night. Nutrients and water were added on a regular basis and supplemental lighting was provided with overhead metal halide 1000-Watt lamps as necessary. The plants were employed for testing when they reached the second or third true leaf stage. Treatments consisted of ester (benzyl) compound of formula (I) (Compound A benzyl ester) and various safeners alone and in combination. Compound of formula (I) and safener components were applied on active ingredient basis. For treatments comprised of formulated compounds, measured amounts of compound of formula (I) were placed individually in 25 mL glass vials and diluted in a volume of 1.25% volume per volume (v/v) Agri-dex crop oil concentrate to obtain stock solutions. […] Stock solutions of the formulated safeners were prepared following the same procedure. Application solutions were prepared by mixing the required amount of each stock solution and addition of an appropriate volume of an aqueous mixture of 1.25% v/v of Agri-dex crop oil concentrate to the appropriate final concentrations of application solutions. […] Application solutions were prepared by adding an appropriate amount of each stock solution and diluted to the appropriate final concentrations with the addition of an appropriate volume of an aqueous mixture of 1.25% (v/v) Agri-dex crop oil concentrate. Application solutions were applied to the plant material with an overhead Mandel track sprayer equipped with […] nozzles calibrated to deliver 187 liters per hectare (L/ha) over an application area of 0.503 square meters (m^2) at a spray height of 18 inches ([…]) above average plant canopy. Control plants were sprayed in the same manner with the solvent blank. The treated plants and control plants were placed in a greenhouse as described above and watered by sub-irrigation to prevent wash-off of the test compounds. […] Colby's equation was used to determine the herbicidal effects expected from the mixtures (Colby, S. R. Calculation of the synergistic and antagonistic response of herbicide combinations. Weeds 1967, 15, 20-22.). The following equation was used to calculate the expected activity of mixtures containing two active ingredients, A and B: […] A=observed efficacy of active ingredient A at the same concentration as used in the mixture; B=observed efficacy of active ingredient B at the same concentration as used in the mixture.

Data set [2] deals with HELAN = Helianthus annuus L. Described as above. Particulars: for pest or weed control at 5 g/ha / pest or weed control at 40 g/ha: Helianthus annuus, post-emergence, 480 h, read-out: HELAN Obs (observed visual injury). As to the method: as §1
The next data set relates to ZEAMX = Zea mays L. The experiment in a line: Postemergence herbicidal safening in corn (maize), greenhouse, visual injury. To be noted: for ZEAMX Obs (observed visual injury, 0 = no injury, 100 = complete kill): applied alone at 4 g ai/ha. As to the method:
as §1

The mark [3] stands for this setting: applied alone at 5 g ai/ha, postemergence, after 20-22 days.
Where [4] appears, read: applied alone at 40 g ai/ha, postemergence, after 20-22 days.
The mark [5] stands for this setting: applied alone at 20 g ai/ha, postemergence, after 20-22 days.
The mark [6] stands for this setting: applied alone at 80 g ai/ha, postemergence, after 20-22 days.
Setting [7] is: applied alone at 160 g ai/ha, postemergence, after 20-22 days.
Setting [8] is: postemergence, after 20-22 days.
Where [9] appears, read: applied alone at 6 g ai/ha, postemergence, after 20-22 days.

In the case of `NC(=O)NS(=O)(=O)c1ccccc1Cl` [Compound 2-CBSU, N-(aminocarbonyl)-2-chlorobenzenesulfonamide], the pest or weed control at 5 g/ha in data set [1] (setting [3]) and in data set [2] (setting [3]) was 0% in each case. The pest or weed control at 40 g/ha in data set [1] (setting [4]) and in data set [2] (setting [4]) was 0% throughout. The “ZEAMX Obs (observed visual injury)” value in the data set with ZEAMX = Zea mays L. (setting [3]) and in the data set on ZEAMX = Zea mays L. (setting [4]) was 0% in each case.

As for `N#C/C(=N/OCC1OCCO1)c1ccccc1` [Oxabetrinil, α-[(1,3-dioxolan-2-yl)methoxyimino]benzeneacetonitrile], the pest or weed control at 5 g/ha in data set [1] (setting [3]) and in data set [2] (setting [3]) was 0% each time. In addition, the pest or weed control at 40 g/ha in data set [1] (setting [4]) and in data set [2] (setting [4]) was 0% throughout. Further, the “ZEAMX Obs (observed visual injury)” value in the data set on ZEAMX = Zea mays L. (setting [3]) and in the data set on ZEAMX = Zea mays L. (setting [4]) was 0% in each case.

As to `FC(F)(F)/C(=N/OCC1OCCO1)c1ccc(Cl)cc1` [Fluxofenim, 1-(4-chlorophenyl)-2,2,2-trifluoroethanone O-(1,3-dioxolan-2-ylmethyl)oxime], the pest or weed control at 5 g/ha in data set [1] (setting [3]) and in data set [2] (setting [3]) was 0% in each case. Further, the pest or weed control at 40 g/ha in data set [1] (setting [4]) and in data set [2] (setting [4]) was 0% each time. For the same compound, the “ZEAMX Obs (observed visual injury)” value in the data set on ZEAMX = Zea mays L. (setting [3]) and with ZEAMX = Zea mays L. (setting [4]) was 0% in each case.

On to `CC1(C)OC(c2ccco2)CN1C(=O)C(Cl)Cl` (racemic) [Furilazole, (±)-3-(dichloroacetyl)-5-(2-furanyl)-2,2-dimethyloxazolidine], for which the pest or weed control at 5 g/ha in data set [1] (setting [3]) and in data set [2] (setting [3]) was 0% in each case. Besides, the pest or weed control at 40 g/ha in data set [1] (setting [4]) and in data set [2] (setting [4]) was 0% throughout. In addition, the “ZEAMX Obs (observed visual injury)” value with ZEAMX = Zea mays L. (setting [3]) and in the data set on ZEAMX = Zea mays L. (setting [4]) was 0% in each case.

Regarding `C=CCN(CC=C)C(=O)C(Cl)Cl` [Dichlormid, N,N-diallyl-2,2-dichloroacetamide], the pest or weed control at 5 g/ha in data set [1] (setting [3]) and in data set [2] (setting [3]) was 0% each time. In addition, the pest or weed control at 40 g/ha in data set [1] (setting [4]) and in data set [2] (setting [4]) was 0% each time. Besides, the “ZEAMX Obs (observed visual injury)” value in the data set on ZEAMX = Zea mays L. (setting [3]) and in the data set with ZEAMX = Zea mays L. (setting [4]) was 0% throughout.

For `CC1(C)CN2C(=O)CCC2(C)N(C(=O)C(Cl)Cl)C1` (racemic) [Dicyclonon], the pest or weed control at 5 g/ha in data set [1] (setting [3]) and in data set [2] (setting [3]) was 0% in each case. Further, the pest or weed control at 40 g/ha in data set [1] (setting [4]) and in data set [2] (setting [4]) was 0% in each case. In addition, the “ZEAMX Obs (observed visual injury)” value in the data set with ZEAMX = Zea mays L. (setting [3]) and with ZEAMX = Zea mays L. (setting [4]) was 0% throughout.

For the compound `CCCCCC(C)OC(=O)COc1ccc(Cl)c2cccnc12` (stereo not shown) [Cloquintocet-mexyl], the “ZEAMX Obs (observed visual injury)” value with ZEAMX = Zea mays L. (setting [5]), in the data set on ZEAMX = Zea mays L. (setting [4]), with ZEAMX = Zea mays L. (setting [6]) and in the data set with ZEAMX = Zea mays L. (setting [7]) was 0% in each case.

Turning to `Cc1ccc(NC(=O)NC(C)(C)c2ccccc2)cc1` [Daimuron, N-(4-methylphenyl)-N′-(1-methyl-1-phenylethyl)-urea], the pest or weed control at 5 g/ha in data set [1] (setting [3]) and in data set [2] (setting [3]) was 0% each time. Further, the pest or weed control at 40 g/ha in data set [1] (setting [4]) and in data set [2] (setting [4]) was 0% in each case. The “ZEAMX Obs (observed visual injury)” value with ZEAMX = Zea mays L. (in vivo) came to 0%.

As for `COc1c(Cl)ccc(-c2nc(C(=O)OCc3ccccc3)c(Cl)c(N)c2F)c1F` [Compound A benzyl ester], the “ABUTH Obs (observed visual injury)” value in data set [1] (setting [4]) came out at 95%. Besides, in data set [2] (setting [4]), the “HELAN Obs (observed visual injury)” value was 94%. Also, in the data set with ZEAMX = Zea mays L. (setting [8]), the “ZEAMX Obs (observed visual injury, 0 = no injury, 100 = complete kill)” value turned out to be 10%. The “ZEAMX Obs (observed visual injury)” value with ZEAMX = Zea mays L. (setting [9]) is 16%; in the data set with ZEAMX = Zea mays L. (setting [5]) it was 32%; with ZEAMX = Zea mays L. (setting [4]), 45% and 23%.

As to `CCOC(=O)C1=NOC(c2ccccc2)(c2ccccc2)C1` [Isoxadifen-ethyl, ethyl 4,5-dihydro-5,5-diphenyl-3-isoxazole-carboxylate], the pest or weed control at 5 g/ha in data set [1] and in data set [2] was 0% throughout. The pest or weed control at 40 g/ha in data set [1] and in data set [2] was 0% in each case. For the same compound, in the data set with ZEAMX = Zea mays L. (setting [8]), the “ZEAMX Obs (observed visual injury, 0 = no injury, 100 = complete kill)” value came to 0%. The “ZEAMX Obs (observed visual injury)” value turned out to be 0% in the data set with ZEAMX = Zea mays L. (setting [3]); 0% in the data set with ZEAMX = Zea mays L. (setting [9]); 0% in the data set with ZEAMX = Zea mays L. (applied alone at 8 g ai/ha, postemergence, after 20-22 days); 0% in the data set with ZEAMX = Zea mays L. (applied alone at 12 g ai/ha, postemergence, after 20-22 days); 0% in the data set with ZEAMX = Zea mays L. (setting [5]); 0% with ZEAMX = Zea mays L. (setting [4]). For the same compound, the “ZEAMX Obs (observed visual injury)” value in the data set on ZEAMX = Zea mays L. (setting [6]) was 0%; with ZEAMX = Zea mays L. (setting [7]), 3%.

With `CC1COc2ccccc2N1C(=O)C(Cl)Cl` (racemic) [Benoxacor, (±)-4-(dichloroacetyl)-3,4-dihydro-3-methyl-2H-1,4-benzoxazine], the pest or weed control at 5 g/ha in data set [1] (setting [3]) and in data set [2] (setting [3]) was 0% each time. The pest or weed control at 40 g/ha in data set [1] (setting [4]) and in data set [2] (setting [4]) was 0% throughout. Also, the “ZEAMX Obs (observed visual injury)” value in the data set with ZEAMX = Zea mays L. (setting [3]) and in the data set on ZEAMX = Zea mays L. (setting [4]) was 0% throughout.

Turning to `O=C1OC(=O)c2cccc3cccc1c23` [Naphthalic anhydride, naphthalene-1,8-dicarboxylic anhydride], the pest or weed control at 5 g/ha in data set [1] (setting [3]) and in data set [2] (setting [3]) was 0% each time. Moreover, the pest or weed control at 40 g/ha in data set [1] (setting [4]) and in data set [2] (setting [4]) was 0% in each case. Moreover, the “ZEAMX Obs (observed visual injury)” value in the data set with ZEAMX = Zea mays L. (setting [3]) and in the data set with ZEAMX = Zea mays L. (setting [4]) was 0% each time.
